{"source": "ChEMBL document CHEMBL5120870", "about": "“Calysepins I-VII, Hexasaccharide Resin Glycosides from Calystegia sepium and Their Cytotoxic Evaluation” (J Nat Prod, 2022)", "test_system": "A549", "test": "Cytotoxicity against human A549 cells incubated for 24 hrs by CCK8 assay", "format": "functional, cell-based", "conditions": "A549, 24 h", "note": "pIC50: −log10 of the molar value."}
{"compound": "CCCCC[C@@H]1CCCCCCCCCC(=O)O[C@H]2[C@H](OC[C@H]3O[C@@H](O[C@H]4[C@H](O)[C@@H](CO)O[C@@H](O[C@H]5[C@H](O1)O[C@H](C)[C@@H](O)[C@@H]5O)[C@@H]4O[C@@H]1O[C@@H](C)[C@H](OC(=O)[C@@H](C)CC)[C@@H](O[C@@H]4O[C@H](CO)[C@@H](OC(=O)[C@@H](C)CC)[C@H](O)[C@H]4O)[C@H]1OC(=O)[C@@H](C)CC)[C@H](O)[C@@H](O)[C@@H]3OC(=O)[C@@H](C)[C@H](C)O)O[C@H](CO)[C@@H](OC(=O)[C@@H](C)CC)[C@@H]2O", "values": [{"measurement": "pIC50", "value": 5.28}]}
